# Source: US20210252159A1, “CONJUGATES OF CARTILAGE-HOMING PEPTIDES” (priority 2018, published 2021)
# Where two headings read alike, the source gives them in different places.
# Columns and labels:
# CIA rats [1] = tested on: CIA rats
# Procedure: Arthritis was induced in 9-week-old female Lewis rats (Envigo or Charles River Laboratories) by intradermal injection while anesthetized of 400 ug bovine type II collagen (Chondrex Inc, Redmond Wash.) in 2 adjacent 200 ul (1 mg/ml) doses on day 0. Collagen is prepared for injection by dissolving at 2 mg/ml in 0.01N glacial acetic acid in sterile water and rocking at 4° C. overnight then emulsifying in Freund's incomplete adjuvant (IFA, Sigma Aldrich). To emulsify, equal volumes of collagen solution and IFA are drawn up into separate syringes, which are joined by a 3-way stopcock. While on ice, the collagen and IFA are mixed by pressing between the two syringes rapidly for 10 minutes. Quality of the emulsification is tested after 10 minutes of mixing by dropping a small amount of mixture in water. A properly emulsified solution will remain as a discrete droplet and not disperse in the water. On day 7, rats are challenged with a second intradermal injection of 100 ug of collagen in 100 ul, 1 mg/ml, collagen in IFA solution prepared fresh. Body weight and ankle diameter measurements are recorded daily from day 7 through the end of the study. Ankle diameter was measure by a single researcher using a Fowler Digitrix 2 micrometer. Three measurements of each ankle were taken of the lateral dimension at the tarsus of lightly anesthetized rats. The reported ankle diameter measurement is the mean of the three measurements.
# Arthritis was induced as described in four cohorts of 9-week-old female Lewis rats. Rats were randomly placed in treatment groups, balancing compound and dose groups across cohorts. […] Rats were dosed by tail vein injection on days 11 and 12 and euthanized on day 13 by CO2 asphyxiation. Immediately after cessation of respiratory movement, blood was collected by cardiac puncture, synovial fluid was collected from both knees, one hind limb was fixed in formalin and the alternate ankle was frozen on dry ice. Thymus, spleen, liver, and kidney weights were recorded.
# CIA Response study design.
# The aim of the study was to test the 4 conjugates with various linkers at two different doses in vivo in CIA rats to assess the following: ability to deliver sufficient dexamethasone to the joint to show functionality and potential therapeutic effect in the disease model.
# CIA was induced in female Lewis rats (as described above, see EXAMPLE 21). Body weight and ankle joint diameters were measured on day 0 and then daily from day 7 until euthanasia. […] At euthanasia, synovial fluid was collected from both knees, one hind limb was fixed in formalin and the alternate ankle was frozen on dry ice. Thymus, spleen, liver, and kidney weights were recorded. Blood samples were submitted for CBC/Chemistry analysis, and the remaining plasma was frozen.
# [2] = IL-1β challenge rat model, dose-ranging study: CBC, organ weights, tolerability; assay type: in vivo, rats
# Procedure: IL-6 was measured in knee lavage fluid using a Luminex assay and levels were normalized to total protein in the lavage fluid (FIG. 24). Assessment of the PD inflammatory marker IL-6 in the knee joints of rats challenged with IL-1β was performed. Terminal synovial fluid was collected from all animals and analyzed by Luminex 200 for IL-6 cytokine concentrations using EMD Milliplex MAP Rat Cytokine/Chemokine Magnetic Panel ([…]-65K). […] Doses are listed as nmol/kg The masses of these doses are given below in TABLE 16. Two hours and forty-five minutes (i.e., 2.75 hrs) after administration of the test agents, animals were gently heated and blood was drawn from the tail vein for CBC analysis. Animals were then anesthetized with inhaled isoflurane and injected with 30 ng of IL-1β into the right knee (except for no IL-1β group). Four hours after administration of IL-1β (seven hours after administration of test agent) the animals were euthanized. Blood was drawn for a second CBC analysis and the right knee was lavaged for detection of IL-6 in the lavage fluid using a Luminex assay. Thymus and spleen were harvested and their organ weights determined.
# In the same animals for which IL-6 secretion was measured, CBC data (e.g., lymphocyte counts) were also analyzed (FIG. 25) at an early time-point, 2.75 hrs post administration of the test article (FIG. 25A), and at euthanasia 7 hrs post administration (FIG. 25B). All treatments were administered as described above for the measurement of IL-6 secretion.
# All treatments and test articles were administered as described above, except for an additional treatment group that received 510 nmol/kg of the peptide-drug conjugate peptide(SEQ ID NO: 105)-DMA-dCIC.
# CIA rats [3] = assay type: in vivo; details: 0.2 mg/kg on study day 0 and day 1
# Procedure: A study was conducted in CIA rats to address the following: 1) functionality and duration of effect for peptide(SEQ ID NO: 105)-carbamate-Dex at 0.2 mg/kg as compared to Dex alone at the same dose; 2) functionality and duration of effect for peptide(SEQ ID NO: 105)-DMA-Dex at 0.05 mg/kg as compared to Dex alone at the same dose; 3) systemic markers of Dex exposure in rats treated with each PDC and Dex at their respective doses (FIG. 16B-FIG. 16G).
# CIA was induced as described above in EXAMPLE 21. Rats were enrolled in the study following onset of arthritis in at least one ankle and randomly assigned into one of five treatment groups (vehicle; peptide-carbamate 0.2 mg/kg; Dex 0.2 mg/kg; peptide-DMA conjugate 0.05 mg/kg; Dex 0.05 mg/kg) with 5 rats per group. Treatment was administered on study day 0 and study day 1 and rats were euthanized on study day 7. The primary read-out in this cohort was change in ankle diameter during and after treatment, as a measure of functionality and duration of effect. […] The primary read-out for this cohort was measures of systemic exposure to Dex which included thymus weight, spleen weight, total white blood cell counts, lymphocyte counts, and change in body weight.
# IL-6 = details: 30 or 3 μg, 4 h
# Procedure: After 4 h, IL-6 levels in synovial fluid of the same knee were measured by Luminex and normalized to protein content of the knee lavage.
# [4] = Systemic markers for glucocorticoid exposure in normal rats; assay type: in vivo; details: normal female Lewis rats
# Procedure: In order to evaluate markers of systemic dexamethasone exposure in normal rats, time points were selected to simulate drug administration for studies (e.g., dosing on days 10 and 11, euthanize on day 12 or dosing on days 11-14 and euthanize on day 14). […] Rats were euthanized 24 hours after the second dose, or 5 hours after the fourth dose. Body weight was measured daily. At euthanasia, liver, spleen, thymus, and kidney weights were recorded and blood was collected for CBC and serum chemistry analysis. To establish the CIA model, female Lewis rats were inoculated with an intradermal injection of bovine collagen II on day 0 and a challenge dose was administered on day 7. Ankle and knee joint diameters were measured daily. Rats were euthanized on day 10, day 12 and day 14 at which time liver, spleen, thymus, and kidney weights were recorded and blood was collected for complete blood count (CBC)/blood chemistry analysis.
# [5] = 1 mg/kg/day for 2 days and 4 days
# [6] = 1 mg/kg/day for 2 days or 4 days, vs vehicle and CIA rats
substance,measurement,setting,value
Dexamethasone sodium phosphate [DexSP],spleen weight,CIA rats [1]; 0.2 mg/kg and 0.5 mg/kg dose,reduction
same,thymus weight,CIA rats [1]; 0.2 mg/kg and 0.5 mg/kg dose,reduction
same,total body weight,CIA rats [1]; 0.2 mg/kg and 0.5 mg/kg dose,reduction
same,change in median ankle diameter between day 11 and day 13 as compared to vehicle,CIA rats [1]; 0.2 mg/kg dose,did not reach statistical significance
same,reduction in thymus weight as compared to vehicle,CIA rats [1]; 0.2 mg/kg dose groups,statistically significant
same,monocytes (CBC),[2]; 2.75 hours post-treatment,dose dependent decrease
same,Lymphocyte counts as compared to vehicle control,"[2]; 2.75 hrs post administration, Dex both doses, dCIC IA or IV",substantial reduction in lymphocyte counts
same,Lymphocyte counts at euthanasia,"[2]; 7 hours post administration, all dose levels",lower at 7 hours as compared to 2.75 hours
same,ankle inflammation / ankle diameter as compared to vehicle,CIA rats [3],highly effective in reducing ankle diameter to baseline levels
same,IL-6 secretion in synovial fluid,IL-6; administered IA (co-injected with IL-1b),no decrease
same,IL-6 secretion in synovial fluid,IL-6; administered IV,some decrease
same,other liver enzymes,[4]; 1 mg/kg/day,no significant changes
same,"red blood cell (RBC) count, hematocrit, neutrophil, monocyte or eosinophil counts",[4]; 1 mg/kg/day,no significant changes
same,absolute lymphocyte count,[4]; [5],decreased
same,total white blood cell (WBC) count,[4]; [5],decreased
same,Body weight,[4]; 1 mg/kg/day for 2 days or 4 days,declined
same,spleen weight,[4]; [6],significantly decreased
same,thymus weight,[4]; [6],significantly decreased
same,Nucleated RBCs,[4]; 4 doses of 1 mg/kg/day,detected in four of the five rats
